Measured values from publication PMC12670400, “LEKTI-Grafted Sunflower Trypsin Inhibitor: A Potential Therapeutic for Skin Diseases” (Journal of Medicinal Chemistry, 2025).
Bridge positions count the residues as written; N and C are the ends. Peptide text beside a SMILES is read from it.

Tested on: endogenous KLK5 of NS keratinocytes
Assay: KLK5 protease activity assay for culture medium of NS keratinocytes
Format: biochemical, human
Conditions: for KLK5 activity in NS keratinocytes medium after treatment: one hour, n = 3, untreated 51.9 ± 1.6 nmol/g
Method: To evaluate the inhibition of lead 7 on endogenous KLK5 activity, media collected from cultured NS keratinocytes and healthy donor keratinocytes were incubated with lead 7 at the final concentration of 100 nM, or 1 μM, or 10 μM for one hour. Media were then concentrated, and KLK5 activity was measured. […] There were significant differences in KLK5 activity before and after treatment (p < 0.05, n = 3). […] This may be because lead 7 exerts inhibitory effects only when KLK5 activity exceeds a certain threshold, which is not reached in keratinocytes from healthy donors. It was noted that the activity of KLK5 in NS was not reduced to the levels observed in normal keratinocytes. Two reasons might be behind this: (i) a higher lead 7 dose may be required, and (ii) the VPR-AMC substrate can be cleaved by a wider range of serine proteases. The remaining noninhibitory activity could be attributed to the presence of other trypsin-like serine proteases secreted in the cultured medium, which can hydrolyze the VPR-AMC substrate but are not inhibited by lead 7. […]
KLK5 protease activity assay for culture medium
Keratinocytes were seeded in 6 well plate with the density of 0.2 × 10⁶ cells per well and cultured in RM+ medium until they reached confluency. The culture media were changed to FBS free-RM+ media, and cells were continuously cultured. 48 hours after the medium changing, the culture media were harvested from the cell culture plates and centrifuged to remove dead cells. A volume of 180 µL of the supernatants was transferred to 1.5 mL Eppendorf tubes, followed by the addition of 20 µL of analogues in 1x PBS at different concentrations. The samples in which 20 µL of 1x PBS instead of the lead 7 were added were as untreated controls. These mixtures were incubated for one hours at 37 degrees Celsius and then processed for precipitation to concentrate the samples using ProteoExtract® Protein Precipitation Kit (Millipore, cat no. 539180). The precipitates were resuspended in 20 µL of 1X PBS (pH 8.0) for protease activity assessment using protease activity assay. 10uL of suspension from each sample was added in 96 well black plate. The enzymatic reaction was initiated by adding 100 µL of Boc-VPR-AMC substrate (final concentration 100 µM) to each well and RFU values in samples were measured. Protease activities were expressed as nmol/g by first converting RFU readings to KLK5 equivalent concentration activity using a KLK5 standard curve, followed by normalization to total protein content

C[C@@H](O)[C@@H]1NC(=O)[C@@H]2CSSC[C@H](NC(=O)[C@H](CCC(=O)O)NC(=O)[C@@H]3CCCN3C(=O)[C@@H]3CCCN3C(=O)[C@H](CC(N)=O)NC(=O)[C@H](CO)NC(=O)[C@H](CCCNC(=N)N)NC1=O)C(=O)N[C@@H](Cc1c[nH]c3ccccc13)C(=O)N1CCC[C@H]1C(=O)N[C@@H](CC(N)=O)C(=O)NCC(=O)N[C@@H](Cc1ccccc1)C(=O)N2 [compound 7] (cyclo(GFCTRSNPPECWPN); disulfide 3-11)
reduction in KLK5 activity, NS keratinocytes (100 nM): 14.6% | KLK5 activity in NS keratinocytes medium after treatment (100 nM): 44.3 ± 2.7 nmol/g | reduction in KLK5 activity, NS keratinocytes (1 μM): 35.5% | KLK5 activity in NS keratinocytes medium after treatment (1 μM): 33.5 ± 2.6 nmol/g | reduction in KLK5 activity, NS keratinocytes (10 μM): 41.2% | KLK5 activity in NS keratinocytes medium after treatment (10 μM): 30.5 ± 1.7 nmol/g
